Experimental data taken from patent publication US11084803B2, “Activators of class I histone deacetylases (HDACs) and uses thereof” (Massachusetts Institute of Technology, priority 2011, dated 2021).
Entries after “also recorded” stand apart in the source; their conditions may differ.

Experiments:
[1] = biological target: T1, recombinant HDAC1 (Homo sapiens, UniProt Q13547); assay: Secondary HDAC1 microfluidics-based assay, 8-point dose response, substrate FAM-TSRHKacKL; format: biochemical; details: for Emax: read-out: Maximum activation % during dose response (50 μM maximum); for AC50 / activation of up to (HDAC1): dose response 50 μM to 0.02 μM
T1 construct: FLAG (C); purchased BPS Biosciences (San Diego, Calif.); host or cells: insect cells (Sf9)

[2] = biological target: T2, Recombinant, full-length human HDAC1 (Homo sapiens, UniProt Q13547); assay: Primary HDAC1 high-throughput screen, microfluidics-based deacetylase assay, single concentration; format: biochemical; details: for Average activation % during HTS (10 μM): substrate FAM-TSRHKacKL; for Percent activation (%) Replicate 1 / Percent activation (%) Replicate 2: high-throughput screening, 6 h; for Average activation % during HTS (10 μM) / Percent activation (%) Replicate 1 / Percent activation (%) Replicate 2: 10 μM
T2 construct: FLAG (C); purchased BPS Biosciences (San Diego, Calif.); host or cells: insect cells (Sf9)
Description: Recombinant, full-length human HDAC1 (GenBank Accession No. NM_004964) with a C-terminal FLAG tag was produced by BPS Biosciences (San Diego, Calif.) using large-scale insect cell protein expression and purification in order to support a large-scale high-throughput screen (HTS).
Compounds were tested with a reaction time of 6 h with compounds tested at a single concentration (10 μM) in duplicate. As a positive control, the biflavonoid gingketin was chosen.
Compounds were tested in duplicate at 10 μM nominal final concentration in 384-well plate format. The reference activator compound, ginkgetin (50 μM), was included in duplicates in each HTS plate as a positive control condition, 24 negative control samples (DMSO only) were included in each plate to provide for the 0% activation baseline.
Within each HTS plate, the effect of individual compounds on the enzymatic activity of HDAC1 was calculated as % change in the conversion of the peptide substrate relative to the average substrate conversion value calculated across the 24 negative control samples.

[3] = tested on: histone lysine residues known to be HDAC1 targets in HEK293T cells; assay: Histone acetylation in HEK293T cells by Western blot; format: cell-based, Human; details: 10 μM or 50 μM, 20 h
Description: DAC compounds were added to HEK293T cells for 20 h. Vehicle was DMSO. Histones were acid-extracted and analyzed by Western blot for Ac-H3K56, Ac-H4K12, Ac-H3K14 and Ac-H2B. Histone 3 was used as the loading control.
Next, what was tested was whether a treatment of HDAC1 activators can increase HDAC1 enzymatic activity in cultured cells. Human HEK293T cells were treated with compounds at different concentrations (10 μM or 50 μM) for 20 h. Histone proteins were extracted, and Western blotting was used to analyze the acetylation of certain histone lysine residues known to be HDAC1 targets.

[4] = tested on: HT-22 cells; assay: Etoposide-induced DNA damage stress in HT-22 cells, cell viability; format: cell-based; details: 5 μM for DAC-001 and DAC-003, 10 μM for others; 3 h before 2 μM etoposide; 72 h; p<0.001
Description: (§1) HT-22 cells, a hippocampal neuron derived cell line, were used to model neurodegeneration. Two types of insults were used. […] Etoposide, a topoisomerase II inhibitor, stressed cells through DNA damage. These two types of stresses have been documented in neurodegenerative diseases.
Similarly, HT-22 cells were pre-incubated with compounds (5 μM for DAC-001 and DAC-003; 10 μM for others) for 3 h. Then, 2 μM etoposide was added to the culture medium. Cell viability was measured 72 h later (FIG. 5B).

[5] = tested on: DIV 14 cortical neurons; assay: Neuronal excitotoxicity model, MAP2 staining of dendrites; format: cell-based; details: compound 20 h; 50 μM glutamate 1 h; p<0.01 for significant
Description: The neuroprotection potential of the candidate compounds were also tested using a neuronal excitoxicity model. DIV 14 cortical neurons were treated with the compounds for 20 h, 50 μM glutamate was added to the culture 1 h before processing the samples for immunocytochemistry. […] Ginkgetin was used as a positive control.

[6] = tested on: HT-22 cells; assay: Glutamate-induced oxidative stress in HT-22 cells, CellTiter-Glo viability; format: cell-based; details: compound 3 h before 2.5 mM glutamate; p<0.05 versus vehicle; 10 μM DAC-003
Description: as §1
HT-22 cells were treated with compounds for 3 h prior to the addition of 2.5 mM glutamate. Cell viability was measured by CellTiter-Glo assays (Promega) (FIG. 5A).

[7] = biological target: recombinant HDAC2 (Homo sapiens, UniProt Q92769); assay: Microfluidics-based deacetylase assay with HDAC2; format: biochemical; details: dose response
Description: (§2) Based upon the results of the HDAC1 activator screen performed, a total of 21 compounds (for structures, see FIGS. 6A to 6C) were initially selected as hits due to their ability to enhance the deacetylase activity of recombinant HDAC1. Those hits, designated as “DACs” (deacetylase activating compounds), were measured using a microfluidics-based assay with an acetylated peptidic substrate (FAM-TSRHKacKL) over a reaction time of 6 h. The 21 HTS hits plus two controls: ginkgetin (an activator) and TSA (trichostatin A, an inhibitor; for its structure, see FIG. 6A) were retested in an 8-point dose response ranging from 50 μM to 0.02 μM.
(§3) Microfluidics-based deacetylase assays were also performed using recombinant HDAC2, HDAC3, and HDAC8 to determine the selectivity of the compounds. Many of the confirmed compounds also activated HDAC2 isoform to a similar or even greater extent. Some compounds activated HDAC3 and inhibited the HDAC8 isoform.

[8] = biological target: recombinant HDAC3 (Homo sapiens, UniProt O15379); assay: Microfluidics-based deacetylase assay with HDAC3; format: biochemical; design: dose or concentration left out as unconfirmed; details: read-out: maximal effect (activation of HDAC3)
Description: as §2, §3

[9] = 8-point dose response 50 μM to 0.02 μM, 6 h

T1 sequence (Q13547 whole entry): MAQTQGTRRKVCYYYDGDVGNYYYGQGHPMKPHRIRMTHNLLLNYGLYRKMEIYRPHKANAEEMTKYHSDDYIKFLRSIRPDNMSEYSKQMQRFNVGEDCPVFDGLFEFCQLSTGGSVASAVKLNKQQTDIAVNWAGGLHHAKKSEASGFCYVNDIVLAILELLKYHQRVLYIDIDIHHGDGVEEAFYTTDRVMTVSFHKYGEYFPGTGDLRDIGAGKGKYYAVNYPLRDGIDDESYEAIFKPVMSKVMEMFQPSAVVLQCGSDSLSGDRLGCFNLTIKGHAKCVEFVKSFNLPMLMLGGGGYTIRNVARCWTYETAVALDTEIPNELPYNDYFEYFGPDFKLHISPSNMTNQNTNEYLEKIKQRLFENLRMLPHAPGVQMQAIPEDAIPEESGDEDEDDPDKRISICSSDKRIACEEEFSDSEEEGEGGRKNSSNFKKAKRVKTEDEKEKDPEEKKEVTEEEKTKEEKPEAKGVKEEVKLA
T2 sequence (Q13547 whole entry): as above
Chain of recombinant HDAC2 (Q92769 whole entry, species assumed): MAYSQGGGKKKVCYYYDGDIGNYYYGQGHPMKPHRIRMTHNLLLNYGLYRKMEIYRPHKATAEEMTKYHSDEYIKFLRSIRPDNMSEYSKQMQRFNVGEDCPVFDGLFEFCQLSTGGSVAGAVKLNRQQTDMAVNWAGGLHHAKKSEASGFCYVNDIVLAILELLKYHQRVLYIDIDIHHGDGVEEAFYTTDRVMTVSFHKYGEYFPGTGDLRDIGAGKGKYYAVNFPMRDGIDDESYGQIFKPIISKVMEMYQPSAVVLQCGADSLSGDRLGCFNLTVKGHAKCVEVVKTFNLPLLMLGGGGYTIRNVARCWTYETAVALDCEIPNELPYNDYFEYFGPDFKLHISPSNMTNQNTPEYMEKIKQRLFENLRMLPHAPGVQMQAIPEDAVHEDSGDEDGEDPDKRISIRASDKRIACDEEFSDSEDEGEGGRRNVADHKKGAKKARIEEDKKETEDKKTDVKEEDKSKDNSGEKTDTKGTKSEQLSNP
Chain of recombinant HDAC3 (O15379 whole entry, species assumed): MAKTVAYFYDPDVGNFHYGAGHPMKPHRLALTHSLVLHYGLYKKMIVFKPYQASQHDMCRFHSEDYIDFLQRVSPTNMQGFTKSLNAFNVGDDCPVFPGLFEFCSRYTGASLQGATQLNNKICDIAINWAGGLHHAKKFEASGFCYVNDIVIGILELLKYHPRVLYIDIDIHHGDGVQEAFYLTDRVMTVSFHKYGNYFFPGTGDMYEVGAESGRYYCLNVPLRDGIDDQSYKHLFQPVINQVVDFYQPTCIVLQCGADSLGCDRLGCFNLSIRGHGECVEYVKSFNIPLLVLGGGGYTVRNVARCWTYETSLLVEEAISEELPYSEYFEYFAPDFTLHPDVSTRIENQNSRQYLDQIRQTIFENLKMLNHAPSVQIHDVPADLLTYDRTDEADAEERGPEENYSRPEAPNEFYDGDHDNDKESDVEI
Chain of recombinant HDAC3 (Q9Y618 395-489 partner limits assumed, species assumed): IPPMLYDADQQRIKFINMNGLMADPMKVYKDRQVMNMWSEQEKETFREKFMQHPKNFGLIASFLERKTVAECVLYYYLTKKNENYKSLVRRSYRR

| Compound | Emax [1, 9] [%] | AC50 [1] [µM] | activation of up to (HDAC1) [1] | Average activation % during HTS (10 μM) [2] [%] | conversion of peptidic substrate FAM-TSRHKacKL to FAM-TSRHKKL (microfluidic fluorescence reader trace) ([2]; FIG. 3A, 3B) | Percent activation (%) Replicate 1 [2] [%] | Percent activation (%) Replicate 2 [2] [%] | levels of acetylated histones (Ac-H3K56, Ac-H3K14, Ac-H4K12, Ac-H2B) [3] | protection against DNA damage stress (cell viability) [4] | protection of neurons from excitotoxicity (retention of dendrites) [5] | protection from oxidative stress (cell viability) [6] | Emax at 10 µM ([1]; plateau at 10 μM, read-out: maximal effect (activation of HDAC1)) [%] | Average effect (positive control) ([2]; ginkgetin 50 μM, 580 measurements, standard deviation: 4%) [% activation] | AC50 [7] [µM] | Emax ([7]; read-out: maximal effect (activation of HDAC2)) [%] | Emax [8] [%] | Maximum activation % during dose response (50 μM maximum) [1, 9] [%] | effect on HDAC isoforms in dose response ([1]; all HDAC isoforms) |
| --- | --- | --- | --- | --- | --- | --- | --- | --- | --- | --- | --- | --- | --- | --- | --- | --- | --- | --- |
| Cc1ccc(C(=O)NC(=S)Nc2ccc(-c3ccc(CO)o3)cc2)cc1 [DAC-001] | 287 | 4.05 | up to 287% | 130.5 | increased conversion | 122.6 | 138.4 | reduced the levels of Ac-H3K56, Ac-H3K14, Ac-H4K12 and Ac-H2B | significantly protect cells from DSB-induced cell death; also recorded: significant protection | significant protection |  |  |  |  |  |  |  |  |
| O=C(NC(=S)Nc1ccc(-c2ccc(CO)o2)cc1)c1cccs1 [DAC-002] | 221 | 8.31 | ≤ 221% | 54.7 |  | 52.7 | 56.6 | reduced the levels of Ac-H3K56, Ac-H3K14, Ac-H4K12 and Ac-H2B | significantly protect cells from DSB-induced cell death; also recorded: significant protection | trend of protection |  |  |  |  |  |  |  |  |
| Cc1cccc2c1[nH]c1nc(N/N=C/c3ccc(O)c(O)c3)nnc12 [DAC-003] | 34 |  |  | 24.6 |  | 24.2 | 24.9 | reduced the levels of Ac-H3K56, Ac-H3K14, Ac-H4K12 and Ac-H2B | significantly protect cells from DSB-induced cell death; also recorded: significant protection | trend of protection | significantly protect cells from oxidative insults; also recorded: significantly protect cells from oxidative stress |  |  |  |  |  |  |  |
| CCC(=O)C1(Sc2nc3ccccc3[nH]2)CC(C)(C)OC1=O (stereo not shown) [DAC-009] | 12 |  |  | 18.7 |  | 15.1 | 22.2 | reduced the levels of Ac-H3K56, Ac-H3K14, Ac-H4K12 and Ac-H2B | significantly protect cells from DSB-induced cell death; also recorded: significant protection |  |  |  |  |  |  |  |  |  |
| COc1ccc(CNc2cc(C)ccc2C)c(OC)c1 [DAC-012] | 26 |  |  | 17.7 |  | 17.5 | 17.9 |  | significantly protect cells from DSB-induced cell death; also recorded: significant protection |  | trend of protection |  |  |  |  |  |  |  |
| COc1cc(O)c2c(=O)cc(-c3ccc(OC)c(-c4c(O)cc(O)c5c(=O)cc(-c6ccc(O)cc6)oc45)c3)oc2c1 [ginkgetin, reference compound] | 23 |  |  | 25.6 |  |  |  |  |  |  |  | 20 | 26 | 28 | 165 | 20 |  |  |
| trichostatin A [reference compound] |  |  |  | 0 |  |  |  |  |  |  |  |  |  |  |  |  | 0 | dose dependent inhibition of all HDAC isoforms |
